The values below come from patent US20230089073A1 (Carmot Therapeutics, Inc., priority 2021, published 2023).

pEC50: −log10 of the molar value.

In the test the target is T1, human GLP-1 receptor (Homo sapiens, UniProt P43220).
T1 construct: expressed in transfected cells
The test can be described thus: GLP-1R cAMP Assay. The settings on record: cAMP accumulation in CHO cells stably overexpressing the human GLP-1 receptor; 30 min treatment; HitHunter cAMP kit; read-out: EC50. The class given is cell-based. Here is the method: cAMP accumulation was measured in Chinese hamster ovary (CHO) cells stably overexpressing the human GLP-1 receptor using the HitHunter cAMP Assay for Small Molecules Kit (Eurofins). Briefly, cells were grown in Ham's F12 Nutrient Mix with 10% FBS, and lifted with Cell Dissociation Buffer, Enzyme free, PBS based (ThermoFisher). […] The anti-cAMP antibody reagent was then added to cells at a 1:2 ratio and 5 μL of mixture was seeded in 384-well small volume white assay plates, at 10,000 cells/well. Cells were then treated with 50 nL compound using an ECHO 550 acoustic dispenser (Labcyte) in a 20-point dose response format in triplicate for 30 min. Cells were then lysed, and detection reagents added according to the manufacturer's protocol. After overnight incubation, luminescence was measured using a Perkin Elmer Envision plate reader. Dose response curves were analyzed using GraphPad Prism 9.0.
Background: Cyclic AMP is a second messenger, typically raised through Gs and lowered through Gi signalling.

T1 sequence (P43220 24-463): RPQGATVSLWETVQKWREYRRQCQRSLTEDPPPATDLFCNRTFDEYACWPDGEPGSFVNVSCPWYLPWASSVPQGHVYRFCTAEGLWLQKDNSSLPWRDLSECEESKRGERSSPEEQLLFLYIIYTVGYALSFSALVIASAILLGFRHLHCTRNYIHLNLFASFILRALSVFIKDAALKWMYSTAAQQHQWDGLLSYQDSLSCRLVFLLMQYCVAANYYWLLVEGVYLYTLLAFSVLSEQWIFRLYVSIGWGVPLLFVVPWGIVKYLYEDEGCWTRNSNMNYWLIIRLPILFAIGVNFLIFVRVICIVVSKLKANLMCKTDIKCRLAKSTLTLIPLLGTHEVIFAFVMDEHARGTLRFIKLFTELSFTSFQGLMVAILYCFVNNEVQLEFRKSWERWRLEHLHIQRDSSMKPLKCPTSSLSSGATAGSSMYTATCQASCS

The pEC50 is the EC50 on a negative log10 scale, so that one unit is a factor of ten. Consider `CCn1cncc1Cn1c(CN2CCC(Oc3ccnc(COc4ccc(C#N)cc4F)c3)CC2)nc2ccc(C(=O)O)cc21` [Compound 275, 2-{[4-({2-[(4-cyano-2-fluorophenoxy)methyl]pyridin-4-yl}oxy)piperidin-1-yl]methyl}-1-[(1-ethyl-1H-imidazol-5-yl)methyl]-1H-1,3-benzodiazole-6-carboxylic acid], for which the pEC50 is greater than 7.30.
The value for `C[C@H]1C[C@H](Oc2cccc(COc3ccc(Cl)cc3F)n2)CCN1Cc1nc2ccc(C(=O)O)cc2n1C[C@@H]1CCO1` [Compound 290, 2-{[(2S,4R)-4-({6-[(4-chloro-2-fluorophenoxy)methyl]pyridin-2-yl}oxy)-2-methylpiperidin-1-yl]methyl}-1-{[(2S)-oxetan-2-yl]methyl}-1H-1,3-benzodiazole-6-carboxylic acid] was greater than 7.30.
The value for `Cn1cncc1Cn1c(CN2CCC(Oc3ccnc(COc4ccc(Cl)cc4C#N)c3)CC2)nc2ccc(C(=O)O)cc21` [Compound 259, 2-{[4-({2-[(4-chloro-2-cyanophenoxy)methyl]pyridin-4-yl}oxy)piperidin-1-yl]methyl}-1-[(1-methyl-1H-imidazol-5-yl)methyl]-1H-1,3-benzodiazole-6-carboxylic acid] was greater than 7.30.
As to `O=C(O)c1ccc2nc(CN3CCN(Cc4cc5ccc(-c6ccc(Cl)cc6F)cc5o4)CC3)n(C[C@@H]3CCO3)c2c1` [Compound 28, 2-[(4-{[6-(4-chloro-2-fluorophenyl)-1-benzofuran-2-yl]methyl}piperazin-1-yl)methyl]-1-{[(2S)-oxetan-2-yl]methyl}-1H-1,3-benzodiazole-6-carboxylic acid], the pEC50 was less than 6.30.
The value for `Cc1ccc(Oc2ccc(C(=O)N3CCN(Cc4nc5ccc(C(=O)O)cc5n4C[C@@H]4CCO4)CC3)cc2)cc1` [Compound 22, 2-({4-[4-(4-methylphenoxy)benzoyl]piperazin-1-yl}methyl)-1-{[(2S)-oxetan-2-yl]methyl}-1H-1,3-benzodiazole-6-carboxylic acid] was less than 6.30; that for `Cc1ccc(Cc2cccc(C(=O)N3CCN(Cc4nc5ccc(C(=O)O)cc5n4C[C@@H]4CCO4)CC3)c2)c(Cl)c1` [Example 32, (S)-2-((4-(3-(2-Chloro-4-methylbenzyl)benzoyl)piperazin-1-yl)methyl)-1-(oxetan-2-ylmethyl)-1H-benzo[d]imidazole-6-carboxylic acid] was 6.30 to 7.30.
The value for `C[C@H]1C[C@H](Oc2cccc(COc3ccc(Cl)cc3Cl)c2)CCN1Cc1nc2ccc(C(=O)O)cc2n1C[C@@H]1CCO1` [Compound 254, 2-{[(2S,4R)-4-{3-[(2,4-dichlorophenoxy)methyl]phenoxy}-2-methylpiperidin-1-yl]methyl}-1-{[(2S)-oxetan-2-yl]methyl}-1H-1,3-benzodiazole-6-carboxylic acid] was greater than 7.30.
The value for `CCn1cncc1Cn1c(CN2CCC(Oc3cccc(COc4ccc(Cl)cc4C#N)n3)CC2)nc2ccc(C(=O)O)cc21` [Compound 246, 2-{[4-({6-[(4-chloro-2-cyanophenoxy)methyl]pyridin-2-yl}oxy)piperidin-1-yl]methyl}-1-[(1-ethyl-1H-imidazol-5-yl)methyl]-1H-1,3-benzodiazole-6-carboxylic acid] was greater than 7.30.
On to `N#Cc1ccc(OCc2cc(OC3CCN(Cc4nc5ccc(C(=O)O)cc5n4C[C@@H]4CCO4)CC3)c(F)cn2)c(F)c1` [Example 367, (S)-2-((4-((2-((4-Cyano-2-fluorophenoxy)methyl)-5-fluoropyridin-4-yl)oxy)piperidin-1-yl)methyl)-1-(oxetan-2-ylmethyl)-1H-benzo[d]imidazole-6-carboxylic acid], for which the negative-log EC50 (pEC50) is greater than 7.30.
The value for `O=C(O)c1ccc2nc(CN3CCc4c([nH]c5c(OCc6ccc(Cl)cc6F)cccc45)C3)n(C[C@@H]3CCO3)c2c1` [Example 121, (S)-2-((8-((4-Chloro-2-fluorobenzyl)oxy)-1,3,4,9-tetrahydro-2H-pyrido[3,4-b]indol-2-yl)methyl)-1-(oxetan-2-ylmethyl)-1H-benzo[d]imidazole-6-carboxylic acid] was less than 6.30; that for `N#Cc1ccc(OCc2ccc(C(=O)N3CCN(Cc4nc5ccc(C(=O)O)cc5n4C[C@@H]4CCO4)CC3)o2)c(F)c1` [Compound 37, 2-[(4-{5-[(4-cyano-2-fluorophenoxy)methyl]furan-2-carbonyl}piperazin-1-yl)methyl]-1-{[(2S)-oxetan-2-yl]methyl}-1H-1,3-benzodiazole-6-carboxylic acid] was less than 6.30; that for `N#Cc1cc(Cl)ccc1OCc1cccc(CC2CCN(Cc3nc4ccc(C(=O)O)cc4n3C[C@H]3CCOC3)CC2)c1` [Compound 158, 2-{[4-({3-[(4-chloro-2-cyanophenoxy)methyl]phenyl}methyl)piperidin-1-yl]methyl}-1-{[(3R)-oxolan-3-yl]methyl}-1H-1,3-benzodiazole-6-carboxylic acid] was greater than 7.30.
Consider `CCn1cncc1Cn1c(CN2CCC(Oc3cccc(COc4ccc(Cl)cc4F)c3)CC2)nc2ccc(C(=O)O)cc21` [Compound 231, 2-[(4-{3-[(4-chloro-2-fluorophenoxy)methyl]phenoxy}piperidin-1-yl)methyl]-1-[(1-ethyl-1H-imidazol-5-yl)methyl]-1H-1,3-benzodiazole-6-carboxylic acid], for which the pEC50 is greater than 7.30.
The value for `CCn1cncc1Cn1c(CN2CCC(Cc3cnc(COc4ccc(Cl)cc4Cl)o3)CC2)nc2ccc(C(=O)O)nc21` [Compound 125, 2-{[4-({2-[(2,4-dichlorophenoxy)methyl]-1,3-oxazol-5-yl}methyl)piperidin-1-yl]methyl}-3-[(1-ethyl-1H-imidazol-5-yl)methyl]-3H-imidazol[4,5-b]pyridine-5-carboxylic acid] was greater than 7.30; that for `O=C(O)c1ccc2nc(CN3CCC(Oc4cc(COc5ccc(Cl)cc5F)ncc4F)CC3)n(C[C@@H]3CCO3)c2c1` [Compound 380, (S)-2-((4-((2-((4-chloro-2-fluorophenoxy)methyl)-5-fluoropyridin-4-yl)oxy)piperidin-1-yl)methyl)-1-(oxetan-2-ylmethyl)-1H-benzo[d]imidazole-6-carboxylic acid] was greater than 7.30.
Take `O=C(O)c1ccc2nc(CN3CCC(Cc4cccc(COc5ccc(Cl)cc5Cl)c4)CC3)n(C[C@H]3CCOC3)c2c1` [Compound 148, 2-{[4-({3-[(2,4-dichlorophenoxy)methyl]phenyl}methyl)piperidin-1-yl]methyl}-1-{[(3R)-oxolan-3-yl]methyl}-1H-1,3-benzodiazole-6-carboxylic acid]: the pEC50 was greater than 7.30.
The value for `CCn1cncc1Cn1c(CN2CCC(Cc3cccc(COc4ccc(F)cc4C#N)c3)CC2)nc2ccc(C(=O)O)cc21` [Compound 188, 2-{[4-({3-[(2-cyano-4-fluorophenoxy)methyl]phenyl}methyl)piperidin-1-yl]methyl}-1-[(1-ethyl-1H-imidazol-5-yl)methyl]-1H-1,3-benzodiazole-6-carboxylic acid] was greater than 7.30.
The value for `COC(=O)c1ccc2nc(CN3CCN(C(=O)c4cccc(Oc5ccc(C)cc5Cl)c4)CC3)n(C[C@@H]3CCO3)c2c1` [Compound 23, methyl 2-({4-[3-(2-chloro-4-methylphenoxy)benzoyl]piperazin-1-yl}methyl)-1-{[(2S)-oxetan-2-yl]methyl}-1H-1,3-benzodiazole-6-carboxylate] was less than 6.30; that for `C[C@H]1C[C@@H](Oc2ccnc(COc3ccc(C#N)cc3F)n2)CCN1Cc1nc2ccc(C(=O)O)nc2n1C[C@@H]1CCO1` [Compound 375] was greater than 7.30.
The value for `O=C(O)c1ccc2nc(CN3CCC(Oc4ccnc(COc5ccc(Cl)cc5F)c4)CC3)n(CC3(CF)CC3)c2c1` [Compound 321] was greater than 7.30; that for `O=C(O)c1ccc2nc(CN3CCN(Cc4ccc(COc5ccc(Cl)cc5Cl)o4)CC3)n(C[C@@H]3CCO3)c2c1` [Compound 9, 2-{[4-({5-[(2,4-dichlorophenoxy)methyl]furan-2-yl}methyl)piperzin-1-yl]methyl}-1-{[(2S)-oxetan-2-yl]methyl}-1H-1,3-benzodiazole-6-carboxylic acid] was 6.30 to 7.30.
Take `O=C(O)c1ccc2nc(CN3CCC(Oc4ccnc(COc5cc(F)c(F)cc5F)n4)CC3)n(C[C@@H]3CCO3)c2c1` [Compound 495, 1-{[(2S)-oxetan-2-yl]methyl}-2-{[4-({2-[(2,4,5-trifluorophenoxy)methyl]pyrimidin-4-yl}oxy)piperidin-1-yl]methyl}-1H-1,3-benzodiazole-6-carboxylic acid]: the pEC50 is greater than 7.30.
The value for `O=C(O)c1ccc2nc(CN3CCC(Oc4cccc(COc5ccc(Cl)cc5Cl)c4)CC3)n(C[C@@H]3CCO3)c2c1F` [Compound 224, 2-[(4-{3-[(2,4-dichlorophenoxy)methyl]phenoxy}piperidin-1-yl)methyl]-7-fluoro-1-{[(2S)-oxetan-2-yl]methyl}-1H-1,3-benzodiazole-6-carboxylic acid] was greater than 7.30; that for `N#Cc1ccc(OCc2cccc(C(=O)N3CCN(Cc4nc5ccc(C(=O)O)cc5n4C[C@@H]4CCO4)CC3)c2)c(F)c1` [Compound 68, 2-[(4-{3-[(4-cyano-2-fluorophenoxy)methyl]benzoyl}piperazin-1-yl)methyl]-1-{[(2S)-oxetan-2-yl]methyl}-1H-1,3-benzodiazole-6-carboxylic acid] was less than 6.30.
The value for `N#Cc1cc(F)ccc1OCc1nccc(OC2CCN(Cc3nc4ccc(C(=O)O)cc4n3C[C@@H]3CCO3)CC2)n1` [Compound 306] was greater than 7.30.
